Seven compounds from publication PMC11875395, “Phenolic metabolism in Sarcandra glabra is mediated by distinct BAHD hydroxycinnamoyltransferases” (The Plant Journal, 2025) can be followed below.

Common to all, as to test: HPLC product formation, Michaelis-Menten
What all share (format): biochemical, Sarcandra glabra

The subject of one experiment is T1, SgHQT2.
T1 construct: full length (5'-RACE), 441 residues, 48847 Da
The note with it: 0.1 M potassium phosphate, exact conditions in Table S14. An excerpt: HPLC product formation, Michaelis-Menten on SgHQT2

A further experiment has as its system T2, SgRAS.
T2 construct: full length, 449 residues, 49348 Da
The note with it: 0.1 M potassium phosphate, exact conditions in Table S15. From the text:
HPLC product formation, Michaelis-Menten on SgRAS

For another experiment, the system named is T3, SgHST.
T3 construct: full length, 436 residues, 48424 Da
The settings on record: 0.1 M potassium phosphate, exact conditions in Table S12. From the text:
HPLC product formation, Michaelis-Menten on SgHST

A further experiment has as its system T4, SgHQT1.
T4 construct: full length, 427 residues, 47772 Da
The settings on record: 0.1 M potassium phosphate, exact conditions in Table S13. From the text:
HPLC product formation, Michaelis-Menten on SgHQT1

The mark [1] stands for this setting: with 4-hydroxyphenyllactic acid (pHPL).

In general, Km refers to the substrate concentration at which the rate is half of its maximum. For `CC(C)(COP(=O)(O)OP(=O)(O)OC[C@H]1O[C@@H](n2cnc3c(N)ncnc32)[C@H](O)[C@@H]1OP(=O)(O)O)[C@@H](O)C(=O)NCCC(=O)NCCSC(=O)/C=C/c1ccc(O)c(O)c1` [Caffeoyl‐CoA], the Km with SgHQT2 (with quinic acid) turned out to be 213 ± 53.5 µM; in the experiment on SgRAS (setting [1]), 57.2 ± 15.7 µM; in the experiment with SgHST (with shikimic acid), 21.4 ± 6.8 µM; in the experiment on SgHQT1 (with quinic acid) it was 9.3 ± 2.5 µM.

As for `O=C(O)[C@]1(O)C[C@@H](O)[C@@H](O)[C@H](O)C1` [Quinic acid], the Michaelis-Menten constant (Km) with SgHQT2 (with p-coumaroyl-CoA) was 11100 ± 1560 µM; with SgHQT1 (with p-coumaroyl-CoA), 5520 ± 713 µM. Further, in the experiment on SgHST (with p-coumaroyl-CoA), the “K m (μM)” value was 16 740.0 ± 1833.0 μM.

In the case of `O=C(O)[C@H](O)Cc1ccc(O)c(O)c1`, the Km with SgRAS (with p-coumaroyl-CoA) came out at 867 ± 105 µM.

Regarding `O=C(O)C1=C[C@@H](O)[C@@H](O)[C@H](O)C1` [Shikimic acid], in the experiment with SgHST (with p-coumaroyl-CoA), the Km was 1220 ± 153 µM. In addition, the “K m (μM)” value in the experiment on SgHQT1 (with p-coumaroyl-CoA, n = 3 ± SD) is 85 440.0 ± 18 700.0 μM.

Turning to `O=C(O)C(O)Cc1ccc(O)cc1` (stereo not shown) [4‐hydroxyphenyllactic acid], the Km in the experiment with SgRAS (with p-coumaroyl-CoA) came out at 544 ± 47.4 µM.

`CC(C)(COP(=O)(O)OP(=O)(O)OC[C@H]1O[C@@H](n2cnc3c(N)ncnc32)[C@H](O)[C@@H]1OP(=O)(O)O)[C@@H](O)C(=O)NCCC(=O)NCCSC(=O)/C=C/c1ccc(O)cc1` [p‐Coumaroyl‐CoA]: the Km in the experiment with SgHQT2 (with quinic acid) stood at 82.3 ± 14.8 µM; in the experiment with SgRAS (setting [1]), 14.6 ± 1.7 µM; in the experiment with SgHST (with shikimic acid), 17.4 ± 4.9 µM; in the experiment on SgHQT1 (with quinic acid), 19.9 ± 3.4 µM.

As for `Nc1c(O)cccc1C(=O)O` [3‐Hydroxyanthranilic acid, 2‐amino‐3‐hydroxybenzoic], in the experiment with SgHST (with p-coumaroyl-CoA), the Michaelis constant (Km) is 238 ± 19.6 µM.
